Structures can show the parent of a compound that is named as a salt.

For data set [1], the target named is T1, hMCP-1 (Homo sapiens, UniProt P13500). Put plainly: Inhibition of MCP-1-induced chemotaxis (96-well chamber, Example 16). It is filed as cell-based. The note with it: THP-1 cells, 12.5 nM hMCP-1, 2 h, 96-well microchemotaxis chamber. The method, then: A 96-well microchemotaxis chamber with a 5 μm-pore size, PVP-coated polycarbonate filter membrane (Neuro Probe Inc., Cabin John, Md.) was used for testing. Compounds were prepared as 10 mM stock solution in DMSO. THP-1 cells (2×10^6 cells/mL) were labeled with 5 μM Calcein AM containing 0.1% F127 (Molecular Probe, Eugene, Oreg.) at 37° C. for 30 min, and then pretreated with compound at room temperature for an additional 30 min. […] The filter membrane was placed over the lower chamber, followed by a silicon gasket and the upper chamber. The pretreated THP-1 cells (4×10^5 cells/50 μL of RPMI1640 medium per well) were added to the upper chamber and incubated in 5% CO2 at 37° C. for 2 h. The migrated cells were determined with a fluorescent plate reader (LJL BioSystems, Sunnyvale, Calif.).
Target sequence in this assay (P13500 24-99): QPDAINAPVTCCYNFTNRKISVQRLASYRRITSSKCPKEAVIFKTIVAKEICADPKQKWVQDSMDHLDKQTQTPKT
Target sequence in this assay (P41597 whole entry partner): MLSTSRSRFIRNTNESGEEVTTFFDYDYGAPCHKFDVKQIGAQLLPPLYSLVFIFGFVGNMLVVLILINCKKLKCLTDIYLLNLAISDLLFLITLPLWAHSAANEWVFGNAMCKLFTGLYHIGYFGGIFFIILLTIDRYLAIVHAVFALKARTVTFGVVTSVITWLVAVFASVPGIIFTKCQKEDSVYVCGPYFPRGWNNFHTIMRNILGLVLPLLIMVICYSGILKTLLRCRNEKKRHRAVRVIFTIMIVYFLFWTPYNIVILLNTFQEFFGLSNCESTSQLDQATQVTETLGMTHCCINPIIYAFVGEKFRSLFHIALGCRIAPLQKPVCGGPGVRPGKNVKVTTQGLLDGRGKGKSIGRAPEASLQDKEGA

In data set [2] the test system is female Lewis rats. Put plainly: Collagen-induced arthritis model in rat, i.p. (Example 23). It is filed as in vivo. The method, then:
Collagen-induced arthritis was induced in female Lewis rats as follows. Rats were injected subcutaneously with the emulsion of bovine collagen type 11 (3.3 mg/kg at day 0 and 1.67 mg/kg at day 7) and complete Freund's adjuvant (CFA) at the base of the tail at day 0 and immunized additionally at day 7. The test compounds were administered i.p. at day 0 and then once a day for 18 days or p.o. (methotrexate) at day 0 and then 3 times a week until day 18. Paw swelling was measured by the increased volume of the legs using a plethysmometer.

The test system of data set [3] is female Lewis rats. The data set can be described thus: Collagen-induced arthritis model in rat, p.o. (Example 24). It is filed as in vivo. The method, then: Collagen-induced arthritis was induced in female Lewis rats as follows. Rats were injected subcutaneously with the emulsion of bovine collagen type 11 (3.3 mg/kg at day 0 and 1.67 mg/kg at day 7) and complete Freund's adjuvant (CFA) at the base of the tail at day 0 and immunized additionally at day 7. The test compounds were administered p.o. at day 0 and then twice a day for 21 days or 3 times a week until day 21 was also administered p.o. from day 13 to day 21 in another group. Paw swelling was measured by the increased volume of the legs using a plethysmometer.

Data set [4] has as its system ICR male mice. Put plainly: Thioglycollate-induced inflammation model (Example 18). The format is in vivo. The note with it: repeated immediately after broth injection and 3 h later, peritoneal cavity at 72 h, mouse. The method, then:
(§1) 3% Brewer's thioglycollate broth (Difco, Detroit, Mich.) was injected into the peritoneal cavity of ICR male mice, followed by subcutaneous administration of the test compound. The same dose of test compound was again administered immediately after the broth injection and 3 h later. After 72 h, the number of total elicited cells and MOMA2-positive cells in the peritoneal cavity was analyzed using an EPICS XL Beckman Coulter.

Data set [5] addresses T1, hMCP-1. Put plainly: Inhibition of MCP-1-induced chemotaxis (48-well chamber, Example 21). The format is cell-based. Set-up: purchased PeproTech. The following applies: THP-1 cells, 2.5 nM hMCP-1, 48-well chamber, 2 hr. The method, then: A 48-well microchemotaxis chamber with a 5 μm-pore size, PVP-coated polycarbonate filter membrane (Neuro Probe Inc., Cabin John, Md.) was used for testing. Compounds were prepared as 10 mM stock solution in DMSO. THP-1 cells were washed with RPMI 1640 medium supplemented with 0.5% BSA and 25 mM HEPES, pH 7.4, and suspended at a density of 4×10^6 cells/mL in the same medium. A 150 μL aliquot of this suspension was treated with an equal volume of test compound solution and the mixture incubated at 37° C. for 15 min. The lower chamber was loaded with 26 μL of a 2.5 nM solution of hMCP-1 (PeproTech) in medium. The filter membrane was placed over the lower chamber, followed by a silicon rubber gasket and the upper chamber. A 50 μL aliquot of the THP-1 cell suspension containing the test compound was added to the upper chamber and the assembly incubated in a 5% CO2 atmosphere at 37+ C. for 2 hr. The chamber was then disassembled and the cells remaining on the upper surface of the filter were scrapped off with a rubber scrapper. The filter was fixed with methanol, stained with Diff-Quik solution, and mounted on a slide glass. The cells that had migrated across the filter onto the lower surface were then counted by microscopic observation.
Target sequence in this assay (P13500 24-99): as the sequence (P13500 24-99) above

In data set [6] the test system is male Wistar rats. The data set can be described thus: Anti-Thy-1 antibody-induced nephritis model, s.c. (Example 19). The format is in vivo. The following applies: rat; for ED-1 positive cells/glomeruli (mean ± SE): day 7. The method, then:
The efficacy of the compounds of the present invention was also evaluated in an animal model of nephritis. This model very closely simulates the conditions found in human mesangial proliferative glomerulonephritis.
Anti-Thy-1 nephritis was induced by intravenous injection of anti-Thy-1-antibody to male Wistar rats. The test compound was subcutaneously administered 2 h before, immediately after, and 5 h after the anti-Thy-1 antibody treatment, and then twice a day for the following 2 days. Anti-MCP-1 antibody was intraperitoneally injected once a day for 3 days. Seven days after the anti-Thy-1 antibody treatment, the rats were sacrificed. The kidneys were perfused with 10% formaldehyde in PBS, surgically removed, and immersed in 10% formaldehyde. The kidneys were then embedded in paraffin for glomerular histopathology or in OCT compound (Miles Inc., Elkhart, Ind.) in liquid nitrogen after immersion in 30% sucrose overnight. Immunohistochemical staining was performed with a mouse anti-rat ED-1 monoclonal antibody. Briefly, 5 μm renal sections were prepared and endogenous peroxidase blocked with 0.3% hydrogen peroxide. The sections were then blocked with Protein Block (DAKO, Japan) and stained with anti-ED-1 antibody for 45 min. The ED-1 antigen was visualized by peroxidase-labeled anti-mouse IgG and diaminobenzidine. The amount of urinary protein was determined with the DC protein assay kit (Bio-Rad, Hercules, Calif.). The effect of a representative test compound on the level of urinary protein excretion and the infiltration of ED-1 positive cells into the glomeruli is shown in Table 10.

Data set [7] concerns apoE-deficient mice. Put plainly: Apolipoprotein E-deficient mouse model of atherosclerosis (Example 20). The format is in vivo. The method, then:
Apolipoprotein E (apoE) is a component of several plasma lipoproteins, including chylomicrons, VLDL, and HDL. Receptor-mediated catabolism of these lipoprotein particles is mediated through the interaction of apoE with the LDL receptor (LDLR) or with LDLR-related protein (LRP). […] The efficacy of the compounds of the present invention was also evaluated using this animal model.
Male, 4 week-old apoE-deficient mice were fed on high-fat diet (15% fat, 1.25% cholesterol). The test compound was administered as food admixture for 8 weeks. At 12 week-old, the mice were fasted for 4 hours and then sacrificed under ether anesthesia. Blood was collected in the presence of heparin, and the hearts were perfused in situ with PBS (pH 7.4), followed by 4% paraformaldehyde for 5 min.
To determine cross-sectional lesion areas, the hearts were embedded in OCT compound and sectioned at 10 μm using cryostat. The sections were stained with oil red O. Each section of the aortic valve was evaluated for oil red O staining by capturing images directly from a RGB camera attached to a light microscope; image analysis was performed with the IPAP-WIN software (Sumika Tekuno, Japan). Five sections were examined for each animal, and the sum of the lesion areas was calculated and expressed as the percent of the total cross-sectional wall area. Total cholesterol was determined with a Determiner assay kit (Kyowa medex, Japan).

The test system of data set [8] is ICR male mice. Put plainly: Thioglycollate-induced inflammation model (Example 17). The format is in vivo, mouse. The note with it: peritoneal cavity 72 h after thioglycollate; 5 mg/kg, subcutaneous. The method, then: as §1
Data set [9] concerns male Lewis rats. Put plainly: Adjuvant arthritis model in rat (Example 22). The format is in vivo. The note with it: 10 mg/kg p.o. once a day. The method, then:
Adjuvant arthritis was induced in male Lewis rats as follows. Complete Freund's adjuvant (CFA) was mixed with PBS and 0.1 ml of the resulting emulsion was injected subcutaneously into the foot pad of the right hind paw (day=0). The test compound was administered p.o. at day 0 and then once a day for 26 days. Paw swelling was measured by the increased thickness of the foot pad.

Data set [10] deals with male Wistar rats. The data set can be described thus: Anti-Thy-1 antibody induced nephritis model, per os (Example 26). The format is in vivo, rat. The method, then: Anti-Thy-1 nephritis was induced by intravenous injection of anti-Thy-1-antibody to male Wistar rats. The test compound was per os administered 2 h before, immediately after, and 5 h after the anti-Thy-1 antibody treatment, and then twice a day for the following 2 days. Seven days after the anti-Thy-1 antibody treatment, the rats were sacrificed. The amount of urinary protein was determined with the DC protein assay kit (Bio-Rad, Hercules, Calif.).

Setting [11] is: 1 mg/kg p.o. 3 times a week until day 21 (positive control).
The mark [12] stands for this setting: 2 mg/kg p.o. twice a day from day 0.
Where [13] appears, read: 10 mg/kg p.o. from day 13 to day 21.
Setting [14] is: 10 mg/kg p.o. twice a day from day 0.

Take `Cc1nn(C)c2ncc(C(=O)NC(=O)Nc3ccc(Cl)c(Cl)c3)c(Cl)c12` [Compound 37, N-{[(3,4-dichlorophenyl)amino]carbonyl}(4-chloro-1,3-Dimethylpyrazolo[5,4-b]pyridin-5-yl)carboxamide]: the IC50 (in general, the point on the concentration scale where inhibition reaches its midpoint) in data set [1] stood at 12.7 µM.
For `CN(Cc1cnc2nc(N)nc(N)c2n1)c1ccc(C(=O)N[C@@H](CCC(=O)O)C(=O)O)cc1` [methotrexate, reference compound], the “Percent Swelling day 18” value in [2] (1 mg/kg p.o. 3 times a week until day 18) is 8.9 ± 1.2 %. Moreover, in [3] (setting [11]), the “Percent Swelling day 14” value is −0.4 ± 1.1 % and the “Percent Swelling day 21” value is reported as −0.7 ± 1.0 %.
`Cc1nn(C)c2nc(N(C)CCN(C)C)c(C(=O)NC(=O)Nc3cccc(OC(C)C)c3)cc12` [Compound 140]: in [4] (10 mg/kg s.c.), the “MOMA2-positive Cells (× 10^6)” value is 5.2 ± 0.6 × 10^6 and the “Total Cells (× 10^6)” value is 7.3 ± 1.1 × 10^6. In addition, in data set [3] (setting [12]), the “Percent Swelling day 14” value is given as 14.2 ± 3.3 % and the “Percent Swelling day 21” value is 49.2 ± 14.1 %. Further, in data set [3] (setting [13]), the “Percent Swelling day 14” value is recorded as 10.1 ± 1.6 % and the “Percent Swelling day 21” value was found to be 73.5 ± 6.3%. Also, in data set [3] (setting [14]), the “Percent Swelling day 14” value was 7.5 ± 1.0 % and the “Percent Swelling day 21” value was 28.0 ± 6.4 %.
In the case of `Cc1nn(C)c2nc(N(C)CCN(C)C)c(C(=O)NC(=O)Nc3ccc(F)c(C(F)(F)F)c3)cc12` [Compound 116, (6-{[2-(Dimethylamino)ethyl]methylamino}-1,3-dimethylpyrazolo[5,4-b]-pyridin-5-yl)-N-({[4-fluoro-3-(trifluoromethyl)phenyl]amino}carbonyl)-carboxamide hydrochloride], in [4] (10 mg/kg s.c.), the “MOMA2-positive Cells (× 10^6)” value is 3.0 ± 0.8 × 10^6 and the “Total Cells (× 10^6)” value was 4.2 ± 1.1 × 10^6.
`Cc1nn(C)c2ncc(C(=O)NC(=O)Nc3ccc(C(=O)N4CCN(C)CC4)c(Cl)c3)c(N3CCN(C)CC3)c12` [Compound 97]: in [4] (2 mg/kg s.c.), the “MOMA2-positive Cells (× 10^6)” value is reported as 4.1 ± 0.3 × 10^6 and the “Total Cells (× 10^6)” value was 6.4 ± 0.6 × 10^6. The compound also showed an IC50 in data set [5] of 1.1 µM.
Consider `Cc1nn(C)c2ncc(C(=O)NC(=O)Nc3ccc(F)c(C(F)(F)F)c3)cc12` [Compound 11, (1,3-Dimethylpyrazolo[5,4-b]pyridin-5-yl)-N-({[4-fluoro-3-(trifluoromethyl)phenyl]amino}carbonyl)carboxamide], for which, in [6] (0.1 mg/kg s.c.), the “Urinary Protein” value came out at 182.2 ± 28.0 mg/day and the “ED-1 positive cells/glomeruli (mean ± SE)” value stood at 5.3 ± 0.7 cells/glomeruli. Besides, in data set [6] (2 mg/kg s.c.), the “Urinary Protein” value is on record as 117.4 ± 26.3 mg/day and the “ED-1 positive cells/glomeruli (mean ± SE)” value is listed as 2.3 ± 0.6 cells/glomeruli. Further, the “% Atherosclerotic Lesion (mean ± SD)” value in data set [7] (10 mg/kg as food admixture for 8 weeks, high-fat diet, aortic valve sections, oil red O) came out at 18.72 ± 5.27 %. Moreover, the “body weight vs control” value in data set [7] (apoE-deficient mice, 8 weeks treatment, data not shown) is recorded as “no significant differences”. For the same compound, in data set [7] (vs control group, statistically significant), the “percent of atherosclerotic lesion area (in words)” value is “reduced”. Moreover, in data set [8], the “MOMA2-positive Cells (× 10^6)” value is 14.3 ± 1.2 × 10^6 and the “Total Cells (× 10^6)” value was 19.7 ± 1.6 × 10^6.
Turning to `Cc1nn(C)c2ncc(C(=O)NC(=O)Nc3ccc(C(=O)N4CCOCC4)c(Cl)c3)cc12` [Compound 141], in data set [2] (10 mg/kg i.p. once a day for 18 days), the “Percent Swelling day 18” value amounted to 12.3 ± 1.5 %.
As to `Cc1nn(C)c2ncc(C(=O)NC(=O)Nc3ccc(F)c(C(F)(F)F)c3)c(N3CCN(C)CC3)c12.Cl` [Compound 85, [1,3-Dimethyl-4-(4-methylpiperazinyl)pyrazolo[5,4-b]pyridin-5-yl]-N-({[4-fluoro-3-(trifluoromethyl)phenyl]amino}carbonyl)carboxamide hydrochloride], the midpoint of inhibition in data set [5], the IC50, lay at 0.09 µM. For the same compound, the “Percent Swelling (foot pad)” value in [9] (day 11 after immunization) is listed as 39%; in data set [9] (day 14 after immunization) it was 40%; in data set [9] (day 17 after immunization) it was 34%; in [9] (day 21 after immunization), 30%; in data set [9] (day 22 after immunization), 26%; in [9] (day 26 after immunization), 27%. For the same compound, the “Urinary Protein (mg/mg creatinine)” value was determined as 33.4 ± 5.1 mg/mg creatinine in data set [10] (0.1 mg/kg per os), 32.4 ± 5.9 mg/mg creatinine in data set [10] (1 mg/kg per os) and 23.5 ± 7.2 mg/mg creatinine in [10] (10 mg/kg per os).

For the origin of these results see patent publication US6670364B2, “Antagonists of MCP-1 function and methods of use thereof” (Telik, Inc., priority 2001, dated 2003).
